Assay results as given in US20100298242A1, “MASKING THE TASTE OF COMPOSITONS CONTAINING SALT” (priority 2006, published 2010).
Entries after “also recorded” stand apart in the source; their conditions may differ. Like-named read-outs stand apart in the source and are kept apart here. Where a SMILES comes first, the peptide text is derived from it.

What was measured:
[1] = cited from earlier work; for ADI value/kg KG: acceptable daily intake per kg body weight
[2] = cited from earlier work
[3] = Acceptable daily intake (ADI) value and highest daily doses calculated from it; details: child weighing 10 kg; for Highest dose/sachet: four sachets a day
From the text: An E number is provided for each sweetener and an ADI value is defined. The “acceptable daily intake” (ADI) value gives the quantity in milligrams per kilogram of body weight (KG) of the substance, which can be taken daily for life without incurring damage.
ADI values (acceptable daily intake) were established for the sweeteners. Using the ADI values, maximum concentrations can be calculated, which may be applied daily by a substance without incurring damage for life. The sweetener addition to the ORS solutions is limited by the ADI values. According to the specialist information for preparation C, the therapeutic maximum dose is four sachets a day for babies and small children. […] The calculation relates to the bodyweight of a child weighing 10 kg.

[4] = Organoleptic check of ORS solutions with a single sweetener; assay type: in vivo; details: 200 mg Na-cyclamate or quantity calculated to equal sweetening power per dose
Procedure: Permitted sweeteners were used for a taste test on ORS solutions. Different concentrations of 10 to 200 mg of the sweetener Na-cyclamate were weighed into the solids mixture. Na-cyclamate is a sodium salt like NaCl. In comparison to other sweeteners, it has a low sweetening power. It was to be found out whether the salty taste of the ORS solution can be masked as a function of concentration by Na-cyclamate. The powder mixtures were weighed out according to the composition of the WHO and dissolved in water according to the instruction.
After organoleptic checking, no salty taste was perceived for the ORS solution with a concentration of 200 mg Na-cyclamate.
The sweeteners were calculated to the standard concentration of the Na-cyclamate. The different sweetening power values of the sweeteners were used as the reference variable.
The calculated quantities of sweeteners were added to the ORS powder mixtures and dissolved in water. The following organoleptic test took place.

[5] = in vivo; cited from earlier work
[6] = Organoleptic test of ORS solutions with sugars and sugar alcohols; assay type: in vivo
From the text: Further sweetening agents were included in a taste testing. An addition of sugars and sugar alcohols has a substantially stronger effect on the total osmolarity of an ORS solution than the addition of sweeteners. […] In addition to the total osmolarity of the effective constituents of the ORS solutions, the values are outside the recommended limits of the WHO recommendations. The quantities to be added are not to be recommended either in relation to the promotion of caries and a laxative effective. […] A taste test was nevertheless carried out with the sugars and sugar alcohols. Complete dissolution took place in water and an organoleptic test took place with the calculated quantities. […] The concentrations of substances were reduced to such an extent that the maximum limit of the osmolarity of 311 mosmol/l was adhered to. […] The addition of sweeteners is to be preferred in each case with regard to side-effects, osmolarity and a complete masking of the salty taste.

[7] = neotam as aspartame derivative; cited from earlier work
bladder carcinomas = details: cited from earlier work
[8] = ranking of the three sweeteners
Procedure: In order to use as few sweeteners as possible, two sweeteners from Table 3 are combined with one another in each case. The result is six combinations. […] As a result, the concentration with 40 mg for aspartame was only selected to be half as high as the maximally permissible daily highest limit. In order to ensure a comparability with the other sweeteners, the concentration of aspartame was also retained for the remaining combinations.
Proceeding from the tested concentration ratios of the combinations it was investigated whether the same masking of taste can be achieved by a reduction in dose of the sweeteners.

[9] = relative to saccharose = 1, sweeteners permitted in the European Union
[10] = sugars and sugar alcohols table
[11] = calculated quantities (equal sweetness to 200 mg Na-cyclamate)
[12] = concentrations reduced so that maximum osmolarity of 311 mosmol/l is adhered to

CC1=CC(=O)NS(=O)(=O)O1 [Acesulfame potassium]
ADI value/kg KG [1]: 15 mg mg/kg KG
Sweetening power [2, 9]: 200
Highest daily dose/10 kg BW [3]: 150 mg
Highest dose/sachet [3]: 37.5 mg
masking of the salty taste of the ORS solution ([4]; listed as acesulfame-K): salty taste was perceived to a lesser extent; also recorded: masking was achieved

CC1=CC(=O)NS(=O)(=O)O1 [Acesulfame]
fate in the human organism (splitting, metabolism, elimination) [5]: eliminated unchanged via the kidneys

CC1=CC(=O)NS(=O)(=O)O1.COC(=O)[C@H](Cc1ccccc1)NC(=O)[C@@H](N)CC(=O)O [Aspartame-acesulfame salt] (H-Asp-Phe-OMe)
fate in the human organism (splitting, metabolism, elimination) [5]: split into its original components aspartame and acesulfame
Sweetening power [2, 9]: 350
masking of the salty taste of the ORS solution [4]: salty taste was perceived to a lesser extent

COC(=O)[C@H](Cc1ccccc1)NC(=O)[C@@H](N)CC(=O)O [Aspartame] (H-Asp-Phe-OMe)
ADI value/kg KG [1]: 40 mg mg/kg KG
fate in the human organism (splitting, metabolism, elimination) [5]: metabolised in the body
Sweetening power [2, 9]: 200
Highest daily dose/10 kg BW [3]: 400 mg
Highest dose/sachet [3]: 100.0 mg
masking of the salty taste of the ORS solution [4]: salty taste was perceived to a lesser extent; also recorded: masking was achieved

OC[C@H]1O[C@@H](O[C@H]2[C@H](O)[C@@H](O)C(O)O[C@@H]2CO)[C@H](O)[C@@H](O)[C@H]1O (stereo partly drawn) [Lactose]
Sweetening power [2, 10]: 0.2

OC[C@@H](O)[C@@H](O[C@H]1O[C@H](CO)[C@@H](O)[C@H](O)[C@H]1O)[C@H](O)[C@@H](O)CO [Maltitol]
masking of the salty taste of the ORS solutions [6, 11]: masking of the salty taste of the ORS solutions could substantially be achieved
masking of the salty taste of the ORS solutions [6, 12]: substantially not salty, but very sour and not sweet
Sweetening power [2, 10]: 0.9

OC[C@@H](O)[C@@H](O)[C@H](O)[C@H](O)CO [Mannitol]
Sweetening power [2, 10]: 0.4

COc1ccc(CCC(=O)c2c(O)cc(O[C@@H]3O[C@H](CO)[C@@H](O)[C@H](O)[C@H]3O[C@@H]3O[C@@H](C)[C@H](O)[C@@H](O)[C@H]3O)cc2O)cc1O [Neohesperidin dihydrochalcone]
ADI value/kg KG [1]: 5 mg mg/kg KG
Sweetening power [2, 9]: 1000

COC(=O)[C@H](Cc1ccccc1)NC(=O)[C@H](CC(=O)O)NCCC(C)(C)C [Neotam]
Sweetening power ([2]; relative to saccharose): about 10,000
hydrolytic stability [7]: better hydrolytic stability

O=C1NS(=O)(=O)c2ccccc21.[Na] [Saccharin sodium]
promotion of the growth of bladder carcinomas (bladder carcinomas): suspected of promoting the growth of bladder carcinomas
ADI value/kg KG [1]: 5 mg mg/kg KG
Sweetening power [2, 9]: 500
Highest daily dose/10 kg BW [3]: 50 mg
Highest dose/sachet [3]: 12.5 mg

OC[C@H]1O[C@@](CO)(O[C@H]2O[C@H](CO)[C@@H](O)[C@H](O)[C@H]2O)[C@@H](O)[C@@H]1O [Saccharose]
masking of the salty taste of the ORS solutions [6, 11]: masking of the salty taste of the ORS solutions could substantially be achieved
masking of the salty taste of the ORS solutions [6, 12]: No masking of taste could be achieved
Sweetening power ([2]; relative to saccharose): one
Sweetening power [2, 10]: 1

O=S(=O)([O-])NC1CCCCC1.[Na+] [Sodium cyclamate]
ability to mask a salty taste [8]: highest
ADI value/kg KG [1]: 11 mg mg/kg KG
ADI value [1]: 11 mg per kg of bodyweight
Sweetening power [2, 9]: 30
Sweetening power [2, 10]: 30
Highest daily dose/10 kg BW [3]: 110 mg
Highest dose/sachet [3]: 27.5 mg
masking of the salty taste of the ORS solution [4]: complete masking of taste; also recorded: masking was achieved

OC[C@@H](O)[C@@H](O)[C@H](O)[C@@H](O)CO [Sorbitol]
Sweetening power [2, 10]: 0.6

OC[C@H]1O[C@H](O[C@]2(CCl)O[C@H](CCl)[C@@H](O)[C@@H]2O)[C@H](O)[C@@H](O)[C@H]1Cl [Sucralose]
ADI value/kg KG [1]: 15 mg mg/kg KG
Sweetening power [2, 9]: 600

Isomalt
Sweetening power [2, 10]: 0.45

Thaumatin
ADI value/kg KG [1]: 5 mg mg/kg KG
Sweetening power [2, 9]: 3000
masking of the salty taste of the ORS solution [4]: could also no longer be masked
